Key:
[1] = test system: PGE2; test: PGE2 release from rat neuronal cultures (enzyme immunoassay / ELISA of culture media); assay type: cell-based; settings: rat neurons, L-homocysteine 50 μM four hours, with DL-AP5 200 μM, MK801 10 μM, NVP-AAM077 30 nM, Ro 25-6981 1 μM, PD98059 15 μM, SB203580 5 μM, Bengamide B 500 nM or CAY10404 100 nM
Procedure: (§1) Neuron cultures were treated with or without L-homocysteine in the presence or absence of pharmacological inhibitors for the time period specified in each experiment. The medium was collected from each experimental plate and centrifuged at 1000 rpm for five minutes to remove cellular debris. Equal amounts (100 μl) of the supernatant from each sample were used to determine the amount of PGE2 using the PGE2 enzyme immunoassay kit according to the manufacturer's instructions. For measurement of cPLA2 activity, the neuronal cells from the above treated conditions were harvested in ice-cold Tris-buffered saline (pH7.4) containing sodium pyrophosphate as phosphatase inhibitor, sonicated three times with five-second bursts and two minutes on ice between intervals. The lysed cell suspensions were centrifuged at 10,000 rpm for 10 minutes and the supernatant removed. Equal amounts of protein from the supernatant (assessed using BCA protein estimation kit) were estimated for activity of cPLA2 using cPLA2 activity assay kit according to the manufacturer's protocol.
For measurement of PGE2 levels and MCP-1 levels released from neurons, culture medium was collected from each experimental plate and centrifuged at 1000 rpm for five minutes to remove cellular debris. Equal volume (100 μl) of the supernatant from each sample was used to determine PGE2 level using the PGE2 ELISA kit according to the manufacturer's instructions.

[2] = test system: COX2; test: COX2 protein level in rat neuronal cultures (immunoblot); assay type: cell-based; settings: rat neurons, L-homocysteine 50 μM four hours, with MK801 10 μM, NVP-AAM077 30 nM, Ro 25-6981 1 μM, PD98059 15 μM, SB203580 5 μM or Bengamide B 500 nM
Procedure: (§2) Equal protein from total cell lysates obtained from rat and mice neuronal cultures were resolved in 7.5% SDS-PAGE, and subjected to immunoblotting procedure as described earlier (Poddar and Paul, 2009, J Neurochem 110:1095-1106). Blots were analyzed with antibodies as described in each experiment. All primary antibodies (anti-COX2, anti-B-tubulin) and secondary-horse radish peroxidase conjugated antibody concentrations were used according to recommendations provided by the manufacturer. Signals from immune complexes in the blots were developed using West Pico supersignal chemiluminescence reagents and then captured on X-ray films. Densitometric analysis of the images was performed using the Image J software.
Rat and mice neuronal cultures were washed with PBS (pH 7.4), containing sodium pyrophosphate and sodium vanadate as phosphatase inhibitors, and harvested in SDS sample buffer (Laemmli, 1970, Nature 227:680-685). Equal protein from total cell lysates, estimated using BCA kit, was resolved by SDS-PAGE (7.5%) followed by western blotting on PVDF membranes. Immunoblot analysis was performed by first blocking with 5% non-fat dry milk for 1 h at room temperature followed by incubation with either COX2 immunoblot analysis (Poddar and Paul, 2009, J Neurochem 110:1095-1106) as described in each experiment. All primary antibodies and horseradish peroxidase conjugated secondary antibodies were used according to manufacturer's recommendations. Signals from immune complexes in the blots were developed using West Pico supersignal chemiluminescence reagents and then captured on X-ray films. Densitometric analysis of the images was performed using the NIH Image J software.

[3] = test system: cPLA2; test: cPLA2 activity in rat neuronal lysates (enzymatic assay); assay type: cell-based; settings: rat neurons, L-homocysteine 50 μM four hours, with MK801 10 μM, NVP-AAM077 30 nM, Ro 25-6981 1 μM, PD98059 15 μM or SB203580 5 μM
Procedure: as §1
For measurement of cPLA2 activity and MCP-1 levels in cell lysates, neuronal lysates were prepared by harvesting neurons in ice-cold Tris-buffered saline (pH 7.4) containing phosphatase inhibitor, sonicated three times in five-second bursts and placed on ice (two minutes) between each burst of sonication. The lysed cell suspensions were centrifuged at 10,000 rpm (10 minutes) and the supernatant was collected in another tube. Equal amounts of protein from the supernatant were processed for cPLA2 activity assay according to the manufacturer's protocol. Equal protein from the lysates were also used to estimate MCP-1 levels using an MCP-1 ELISA kit.

[4] = test system: rat cortical neuronal cultures; test: Neuronal cell death by Hoechst DNA staining, rat cortical neuron cultures; assay type: cell-based; settings: rat neurons, with NVP-AAM077 30 nM or PD98059 15 μM
Procedure: (§3) Neurons were subjected to staining with Hoechst 33342 dye for 15 minutes, washed extensively with PBS, and analyzed using fluorescent microscopy to assess nuclear damage. Imaging was performed with a Zeiss Axiovert 200M fluorescence microscope with attached AxioCam CCD camera using 20× objective lens (Carl Zeiss, Thomwood, N.Y.). To quantitatively assess the percentage of pyknotic nuclei a total of 1000 cells were counted for each set of experiments. Mean±SEM (n=3) were used for statistical comparison using ANOVA (Bonferroni's multiple comparison test). Differences were considered significant when p<0.05.
(§4) […] Glutamate treated cells were then maintained in their original medium for another 17 hours. For some experiments, neurons were treated with L-homocysteine or glutamate in the presence of NVP-AAM077 or PD98059. The neurons were then fixed and stained with Hoechst 33342 dye as previously described (Poddar and Paul, 2009, J Neurochem 110:1095-1106). Percentage of pyknotic nuclei was quantitatively assessed by fluorescent microscopy to determine the extent of neuronal death.

[5] = test system: neuron cultures from WT and GluN2A-KO mice; test: Neuronal cell death by Hoechst DNA staining, WT and GluN2A-KO mouse neuron cultures; assay type: cell-based; settings: PD98059 15 μM
Procedure: as §3, §4

[6] = test system: [Ca^2+]i; test: Intracellular Ca^2+ by Fura2 imaging, rat neuronal cultures; assay type: cell-based; settings: rat neurons
Procedure: (§5) Embryos obtained from pregnant Sprague Dawley rats (16-17-day gestation) or wild type (WT) and GluN2A KO mice (15-16-day gestation) were used to establish primary cortical neuronal cultures as previously described (Poddar and Paul, 2009, J Neurochem 110:1095-1106; Poddar and Paul, 2013, J Neurochem 124:558-570; Poddar et al., 2017, J Neurochem 142:560-573). Neurons were grown on either (a) 35-mm culture dishes (MatTek Corp., Ashland, Mass.) coated overnight with poly-D-lysine (50 μg/ml) and laminin (10 μg/ml) for Ca^2+ imaging studies, (b) poly-D-lysine-coated 60 mm dishes (Corning BIOCOAT, Corning Inc., Corning, N.Y.) for biochemical studies, or (c) poly-D-lysine-coated 4-well culture slides (Corning BIOCOAT, Corning Inc., Corning, N.Y.) for cell death assay. Neurons were maintained in culture for 12-13 days before experiment. The cells were treated with freshly prepared L-homocysteine (50 μM) in Hank's balanced salt solution containing 50 μM of glycine (Lipton et al., 1997, Proceedings of the National Academy of Sciences of the United States of America 94:5923-5928; Poddar and Paul, 2009, J Neurochem 110:1095-1106; Poddar and Paul, 2013, J Neurochem 124:558-570; Poddar et al., 2017, J Neurochem 142:560-573) for the specified time periods. In a parallel series of experiments, cells were treated with glutamate (50 μM) for the specified time periods. Cells were then processed for live cell imaging, immunoblotting or cell death assay. In some experiments EGTA, DL-AP5, NVP-AAM077, Ro 25-6981 or PD98059 was added 15 minutes prior to L-homocysteine or glutamate treatment.
[Ca^2+]i in neurons was determined using the fluorescent indicator, Fura2-AM. Briefly, neurons were loaded with Fura2 (10 μM) in phenol red free Hank's balanced salt solution for 30 minutes at 37° C. followed by post-incubation for 20 minutes (Paul, S. and Connor, J. A., 2010, J Neurochem 114:1107-1118). Time lapse live cell imaging was performed following stimulation using a Nikon Ti Eclipse inverted microscope equipped with Tokai Hit stage top incubator maintained at 37° C. and infused with 95:5% air:CO2 mixture. Fields of 5-8 cells were imaged using a 40× oil immersion objective (Nikon). Fluorescence excitations (340 and 380 nm) were provided with Sutter LB-LS/30 Lambda xenon arc lamp and fluorescence emissions (510 nm) were captured using a CCD camera (Teledyne Photometries, Tucson, Ariz.). NIS Elements AR software was used for data acquisition and analysis. Ratiometric data (340/380 nm) from regions of interest were corrected for background and converted into estimates of [Ca^2+]i. as described previously (Paul, S. and Connor, J. A., 2010, J Neurochem 114:1107-1118) using the equation developed earlier (Grynkiewicz et al., 1985, J Biol Chem 260:3440-3450). Maximum and minimum fluorescence ratios were determined from Fura2 loaded cells treated with ionomycin (5 μM) in calcium containing medium (2 mM) or in calcium free media with EGTA (0.5 mM).

[7] = test system: ERK MAPK; test: ERK MAPK phosphorylation in rat cortical neuron cultures (immunoblot); assay type: cell-based; settings: rat neurons, glutamate 50 μM, 5, 30 or 60 minutes
Text: (§6) Primary cortical neuronal cultures were established from embryos obtained from pregnant Sprague Dawley female rats (16-17 day gestation) as previously described (Podder and Paul, 2009, J Neurochem 110:1095-1106; Poddar and Paul, 2013, J Neurochem 124: 558-570). Primary cortical neuronal cultures were also developed from pregnant wildtype or GluN2A-knockout mice (15-16 day gestation) using similar protocols. The cells were maintained in culture for 12-14 days prior to treatment with homocysteine. L-homocysteine (200 mM stock) was prepared by alkali hydrolysis of L-homocysteine thiolactone hydrochloride followed by neutralization with 2N HCL and maintained in 0.02 mM N-Tris(hydroxymethyl)methyl-2-aminoethanesulfonicd acid (TES) buffer pH 7.4 (Poddar et al., 2001, Circulation 103:2717-2723). For receptor stimulation neurons were treated with freshly prepared 50 μM of L-homocysteine in Hank's balanced salt solution (Podder and Paul, 2009, J Neurochem 110:1095-1106; Poddar and Paul, 2013, J Neurochem 124: 558-570) containing 50 μM of glycine (Lipton et al., 1997, Proc Natl Acad Sci USA 94:5923-5928). In a subset of culture plates, pharmacological inhibitors (NVP-AAM007) were added […] prior to homocysteine addition and maintained during homocysteine treatment. Cells were processed for immunoblotting or Hoechst DNA staining.
as §2, with “(Podder” for “(Poddar”, “(anti-pERK, anti-ERK)” for “(anti-COX2, anti-B-tubulin)”
as §5
Rat and mice neuron cultures were harvested in SDS sample buffer (Laemmli, 1970, Nature 227:680-685). […]

[8] = test system: ERK MAPK; test: ERK MAPK phosphorylation in WT and GluN2A-KO mouse neuron cultures (immunoblot); assay type: cell-based, mice; settings: both WT and GluN2A-KO mice cultures, glutamate 50 μM
Text: as §6
as §2, with “(Podder” for “(Poddar”, “(anti-pERK, anti-ERK)” for “(anti-COX2, anti-B-tubulin)”
as §5, with “In some experiments EGTA, DL-AP5, NVP-AAM077, Ro 25-6981 or PD98059 was added 15 minutes prior to L-homocysteine or glutamate treatment.” left out

[9] = test system: [Ca^2+]i; test: Intracellular Ca^2+ by Fura2 imaging, WT and GluN2A KO mouse neuronal cultures; assay type: cell-based, mice; settings: neurons from both WT and GluN2A-KO mice, glutamate 50 μM
Procedure: as §5
[Ca^2+]i in neurons was determined using the fluorescent indicator, Fura2-AM. […] Fluorescence excitations (340 and 380 nm) were provided with Sutter LB-LS/30 Lambda xenon arc lamp and fluorescence emissions (510 nm) were captured using a CCD camera (Teledyne Photometries, Tucson, Ariz.). […] Maximum and minimum fluorescence ratios were determined from Fura2 loaded cells treated with ionomycin (5 μM) in calcium containing medium (2 mM) or in calcium free media with EGTA (0.5 mM).

Row | SMILES | effect on homocysteine-induced PGE2 release [1] | effect on homocysteine-induced increase in COX2 protein level [2] | effect on homocysteine-mediated increase in cPLA2 activity [3] | further results
1 | C[C@]12N[C@H](Cc3ccccc31)c1ccccc12 [MK801] | significantly reduced | blocks homocysteine induced COX2 protein expression | is blocked | –
2 | COc1cccc(-c2cc(=O)c3ccccc3o2)c1N [PD98059] | decreases significantly | significantly reduced | significantly attenuates homocysteine-mediated increase in cPLA2 activity | effect on homocysteine-induced neuronal death ([4]; L-homocysteine 50 μM 18 hours): attenuates homocysteine-induced neurotoxicity; effect on glutamate induced neuronal cell death ([4]; glutamate 50 μM one hour then 17 hours in original medium): remain unaffected; effect on homocysteine-induced neurotoxicity ([5]; neurons from WT mice, L-Hcy 50 μM 18 hours): significantly reduced; effect on glutamate-induced neurotoxicity ([5]; neurons from either WT or GluN2A KO mice, glutamate 50 μM one hour then 17 hours): fails to reduce glutamate-induced neurotoxicity
3 | CS(=O)(=O)c1ccc(-c2noc(C(F)(F)F)c2-c2ccccc2)cc1 [CAY10404] | significantly reduced | – | – | –
4 | O=C(O)CN(CCOCCOCCN(CC(=O)O)CC(=O)O)CC(=O)O [EGTA] | – | – | – | effect on homocysteine-induced increase in Fura2 fluorescence ratio and [Ca^2+]i ([6]; somata and processes, L-homocysteine 50 μM 60 minutes, with EGTA 2 mM, DL-AP5 200 μM, NVP-AAM077 30 nM or Ro 25-6981 1 μM): are blocked
5 | CCCCCCCCCCCCCC(=O)O[C@H]1CC[C@H](NC(=O)[C@H](OC)[C@H](O)[C@@H](O)[C@H](O)/C=C/C(C)C)C(=O)N(C)C1 [Bengamide B] | significant decrease in PGE2 level | attenuates homocysteine-induced increase in COX2 protein level | – | –
6 | C[S+]([O-])c1ccc(-c2nc(-c3ccncc3)c(-c3ccc(F)cc3)[nH]2)cc1 (stereo not drawn) [SB203580] | significant reduction | significant reduction | significant reduction | –
7 | N[C@@H](CCC(=O)O)C(=O)O [glutamate] | – | – | – | increase in [Ca^2+]i ([6]; glutamate 50 μM, within 2.5 minutes): approximately 21 fold; ERK MAPK phosphorylation [7]: rapid but transient increase in ERK MAPK phosphorylation; ERK MAPK phosphorylation [8]: rapid but transient increase in ERK MAPK phosphorylation; Fura2 fluorescence ratio and [Ca^2+]i [9]: rapid increase in Fura2 fluorescence ratio and [Ca^2+]i

— patent US11541065B2, “Compositions and methods for treating brain injury” (UNM RAINFOREST INNOVATIONS, priority 2018, dated 2023)
